{"source": "patent US9387235B2", "about": "“Cosmetic preparations containing PTH fragments” (BASF Beauty Care Solutions France S.A.S., priority 2004, dated 2016)", "key": {"protein kinase C (PKC)": {"system": "protein kinase C (PKC)", "conditions": "osteosarcoma cells of ROS 17/2 rats; Jouishomme et al. 1992, 1994; cited from earlier work"}, "lumican": {"system": "lumican", "assay": "Stimulation of the synthesis of lumican on aged human dermal fibroblasts (immunocytochemistry, image analysis)", "format": "cell-based", "conditions": "aged human dermal fibroblasts in culture", "procedure": "Human dermal fibroblasts cell suspension were prepared by standard digestion by collagenase of human adult dermis specimens collected from plastic surgery.\nAfter repeated passages (Hayflick model) to mimic ageing in vitro, human dermal fibroblasts were seeded in DMEM for 2 days at 37° C., CO2=5%. Then, acetyl-QDVH (1 and 3 μg/ml) is introduced and after 6 days of incubation at 37° C., CO2=5%, the expression of the lumican synthesis was evaluated on glass slides by immunocytochemistry.\nQuantification of the staining was carried out by image analysis.\nThe results are expressed as the sum of the product of number of pixels by green detected values (arbitrary unit)."}, "collagen type I": {"system": "collagen type I", "assay": "Collagen type I gene expression in human dermal fibroblasts (quantitative RT-PCR)", "format": "cell-based", "conditions": "for Ratio versus calibrator (collagen type I mRNA): incubation for 1 day, EF1α reference gene; for rate of collagen type I gene expression (in words): human dermal fibroblasts", "procedure": "Human dermal fibroblasts are seeded and incubated for 3 to 5 days at 37° C., CO2=5%.\nAfter exchange of cell culture medium to a defined cell culture medium with the products to be tested, incubation for 1 day at 37° C., CO2=5%. The recovering of cells and numeration before recovering of RNA from human dermal fibroblasts cultured in vitro.\nThe level of mRNA encoding the collagen type I was evaluated by quantitative RT-PCR or real time RT-PCR.\nThe results are firstly expressed by the crossing point (CP) which refers to the number of cycle required for the rising of a distinct fluorescence. Then the results of each sample, are calculated as a ratio referring to a reference gene or “house keeping” gene: CP of target/CP of reference gene. EF1α gene was used as internal control gene to normalise the mRNA evaluation."}, "human dermal fibroblast": {"system": "human dermal fibroblast", "assay": "Human dermal fibroblast mRNA profile on cDNA-array (Panhuman 10K)", "format": "cell-based", "conditions": "for Expression evolution / Log2 (treated/non-treated): 5 μg/ml", "procedure": "The aim of this study is to detect the variation of mRNA profile of human dermal fibroblast induced by treatment with the PTH(29-32) peptide fragment.\nNormal human dermal fibroblast were cultured in standard medium supplemented with foetal calf serum (FCS) during three days in a 5% CO2 atmosphere. After cultures, the medium was changed by a standard medium either supplemented with PTH(29-32) peptide fragment at 5 μg/ml or not. After an incubation of either 3 or 24 hours, cultures were arrested and total RNAs of the different cultures were extracted. The cDNAs obtained from peptide-treated RNAs or from non-treated RNAs were labelled with cyanine-3 and cyanine-5, respectively.\nMixture of treated and non-treated cDNAs were hybridised on commercially Panhuman® 10K (MW Biotech, Roissy Charles-de-Gaulle, France) cDNA-array allowing to study near to 10,000 gene expressions. After highly stringent washing, cyanine-3 and cyanine-5 fluorescences were measured, allowing to evaluate a […] expression ratio of each analyzed gene.\nResults are expressed as Log2 of the ratio between the measured expression of genes in the treated vs non-treated conditions."}, "human dermis fibroblasts": {"system": "human dermis fibroblasts", "assay": "Effects on the growth of human dermis fibroblasts (DNA cell content, Hoechst 33258)", "format": "cell-based", "conditions": "for DNA after culture for 3 days / DNA after culture for 6 days: % relative to control medium, mean of four tests in triplicate", "procedure": "The object of this test is to examine the regenerating and revitalising activities of cultures of human dermis fibroblasts in vitro.\nHuman dermis fibroblasts were incubated in a standard medium for cell cultures with foetal calf serum (FCS). After culture for one day at 37° C. and with a 5% content of CO2, the medium was changed for a standard medium with different concentrations of peptides. After further incubation for three days and six days, the number of living cells was established by establishing the DNA cell content with a fluorescent probe (Hoechst 33258)."}, "[1]": {"conditions": "col1a1, alpha 1 type i collagen, 3 h incubation"}, "[2]": {"conditions": "cspg2, chondroitin sulfate 2 (versican), 3 h incubation"}, "[3]": {"conditions": "cspg2, chondroitin sulfate 2 (versican), 24 h incubation"}, "[4]": {"conditions": "ctgf, connective tissue growth factor, 3 h incubation"}, "[5]": {"conditions": "ctgf, connective tissue growth factor, 24 h incubation"}, "[6]": {"conditions": "fgf2, fibroblast growth factor 2, 3 h incubation"}, "[7]": {"conditions": "gpc1, glypican 1 precursor, 3 h incubation"}, "[8]": {"conditions": "gpc1, glypican 1 precursor, 24 h incubation"}, "[9]": {"conditions": "itga2b, integrin alpha 2b, 3 h incubation"}, "[10]": {"conditions": "itgb4, integrin, beta 4, 24 h incubation"}, "[11]": {"conditions": "itgb5, integrin, beta 5, 3 h incubation"}, "[12]": {"conditions": "itgb5, integrin, beta 5, 24 h incubation"}, "[13]": {"conditions": "nid, nidogen (enactin), 3 h incubation"}, "[14]": {"conditions": "nid, nidogen (enactin), 24 h incubation"}, "[15]": {"conditions": "tgfbr3, transforming growth factor, beta receptor III (betaglycan), 3 h incubation"}, "[16]": {"conditions": "tgfbr3, transforming growth factor, beta receptor III (betaglycan), 24 h incubation"}, "[17]": {"conditions": "thbs1, thrombospondin 1, 24 h incubation"}, "[18]": {"conditions": "timp1, tissue inhibitor of metalloproteinase 1, 3 h incubation"}}, "note": "No end group written: not given here.", "data": [{"substance": "Leu-Gln-Asp-Val-His-Asn-Phe (LQDVHNF; Fragment of a parathyroid hormone) [PTH region (28 to 34)]", "values": [{"measurement": "activation of protein kinase C (in words)", "setting": "protein kinase C (PKC)", "value": "stimulator of the protein kinase C (PKC)"}]}, {"substance": "IL-4: IL4 (positive control) obtained from SIGMA [reference compound]", "values": [{"measurement": "lumican expression (in words)", "setting": "lumican", "value": "increase of lumican expression"}]}, {"substance": "TGFβ [reference compound]", "values": [{"measurement": "Ratio versus calibrator (collagen type I mRNA)", "setting": "collagen type I; 10 ng/ml", "value": 2.12}, {"measurement": "rate of collagen type I gene expression (in words)", "setting": "collagen type I", "value": "strongly enhanced"}]}, {"substance": "Gln-Asp-Val-His (QDVH; Fragment of a parathyroid hormone)", "values": [{"measurement": "Expression evolution", "setting": "human dermal fibroblast; bgn, biglycan, 3 h incubation", "value": "increase"}, {"measurement": "Log2 (treated/non-treated)", "setting": "human dermal fibroblast; bgn, biglycan, 3 h incubation", "value": 2.16}, {"measurement": "Expression evolution", "setting": "human dermal fibroblast; bgn, biglycan, 24 h incubation", "value": "increase"}, {"measurement": "Log2 (treated/non-treated)", "setting": "human dermal fibroblast; bgn, biglycan, 24 h incubation", "value": 0.66}, {"measurement": "Expression evolution", "setting": "human dermal fibroblast; [1]", "value": "increase"}, {"measurement": "Log2 (treated/non-treated)", "setting": "human dermal fibroblast; [1]", "value": 0.93}, {"measurement": "Expression evolution", "setting": "human dermal fibroblast; [2]", "value": "increase"}, {"measurement": "Log2 (treated/non-treated)", "setting": "human dermal fibroblast; [2]", "value": 1.32}, {"measurement": "Expression evolution", "setting": "human dermal fibroblast; [3]", "value": "increase"}, {"measurement": "Log2 (treated/non-treated)", "setting": "human dermal fibroblast; [3]", "value": 1.20}, {"measurement": "Expression evolution", "setting": "human dermal fibroblast; [4]", "value": "increase"}, {"measurement": "Log2 (treated/non-treated)", "setting": "human dermal fibroblast; [4]", "value": 0.77}, {"measurement": "Expression evolution", "setting": "human dermal fibroblast; [5]", "value": "increase"}, {"measurement": "Log2 (treated/non-treated)", "setting": "human dermal fibroblast; [5]", "value": 0.74}, {"measurement": "Expression evolution", "setting": "human dermal fibroblast; [6]", "value": "increase"}, {"measurement": "Log2 (treated/non-treated)", "setting": "human dermal fibroblast; [6]", "value": 0.86}, {"measurement": "Expression evolution", "setting": "human dermal fibroblast; [7]", "value": "no variation"}, {"measurement": "Log2 (treated/non-treated)", "setting": "human dermal fibroblast; [7]", "value": "−0.17"}, {"measurement": "Expression evolution", "setting": "human dermal fibroblast; [8]", "value": "increase"}, {"measurement": "Log2 (treated/non-treated)", "setting": "human dermal fibroblast; [8]", "value": 0.73}, {"measurement": "expression of fibroblast genes (in words)", "setting": "human dermal fibroblast; growth factors, extra-cellular matrix components, DEJ components", "value": "stimulates the expression of some genes"}, {"measurement": "Expression evolution", "setting": "human dermal fibroblast; [9]", "value": "increase"}, {"measurement": "Log2 (treated/non-treated)", "setting": "human dermal fibroblast; [9]", "value": 0.50}, {"measurement": "Log2 (treated/non-treated)", "setting": "human dermal fibroblast; itga2b, integrin alpha 2b, 24 h incubation", "value": 0.15}, {"measurement": "Expression evolution", "setting": "human dermal fibroblast; [10]", "value": "increase"}, {"measurement": "Log2 (treated/non-treated)", "setting": "human dermal fibroblast; [10]", "value": 1.15}, {"measurement": "Expression evolution", "setting": "human dermal fibroblast; [11]", "value": "no variation"}, {"measurement": "Log2 (treated/non-treated)", "setting": "human dermal fibroblast; [11]", "value": 0.05}, {"measurement": "Expression evolution", "setting": "human dermal fibroblast; [12]", "value": "increase"}, {"measurement": "Log2 (treated/non-treated)", "setting": "human dermal fibroblast; [12]", "value": 0.68}, {"measurement": "Expression evolution", "setting": "human dermal fibroblast; [13]", "value": "increase"}, {"measurement": "Log2 (treated/non-treated)", "setting": "human dermal fibroblast; [13]", "value": 1.76}, {"measurement": "Expression evolution", "setting": "human dermal fibroblast; [14]", "value": "increase"}, {"measurement": "Log2 (treated/non-treated)", "setting": "human dermal fibroblast; [14]", "value": 0.58}, {"measurement": "Expression evolution", "setting": "human dermal fibroblast; [15]", "value": "increase"}, {"measurement": "Log2 (treated/non-treated)", "setting": "human dermal fibroblast; [15]", "value": 2.00}, {"measurement": "Expression evolution", "setting": "human dermal fibroblast; [16]", "value": "increase"}, {"measurement": "Log2 (treated/non-treated)", "setting": "human dermal fibroblast; [16]", "value": 1.54}, {"measurement": "Expression evolution", "setting": "human dermal fibroblast; [17]", "value": "increase"}, {"measurement": "Log2 (treated/non-treated)", "setting": "human dermal fibroblast; [17]", "value": 1.52}, {"measurement": "Expression evolution", "setting": "human dermal fibroblast; [18]", "value": "increase"}, {"measurement": "Log2 (treated/non-treated)", "setting": "human dermal fibroblast; [18]", "value": 0.15}, {"measurement": "Log2 (treated/non-treated)", "setting": "human dermal fibroblast; timp1, tissue inhibitor of metalloproteinase 1, 24 h incubation", "value": "−0.25"}, {"measurement": "activation of protein kinase C (in words)", "setting": "protein kinase C (PKC)", "value": "minimum domain of PTH in a position to function fully in the activation of PKC"}, {"measurement": "growth of human dermis fibroblasts (in words)", "setting": "human dermis fibroblasts; fibroblasts cultivated from biopsies of healthy adult subjects", "value": "stimulates the growth of human dermis fibroblasts"}, {"measurement": "DNA after culture for 3 days", "setting": "human dermis fibroblasts; peptide 0.001 %", "value": 162, "unit": "%"}, {"measurement": "DNA after culture for 6 days", "setting": "human dermis fibroblasts; peptide 0.001 %", "value": 119, "unit": "%"}, {"measurement": "DNA after culture for 3 days", "setting": "human dermis fibroblasts; peptide 0.003 %", "value": 155, "unit": "%"}, {"measurement": "DNA after culture for 6 days", "setting": "human dermis fibroblasts; peptide 0.003 %", "value": 115, "unit": "%"}, {"measurement": "persistence of growth-stimulating activity (in words)", "setting": "human dermis fibroblasts; without any change in the cell culture medium", "value": "still detectable after 6 days"}]}, {"substance": "acetyl-Gln-Asp-Val-His (Ac-QDVH) [Acetyl-QDVH, acetylated PTH (29-32) peptide fragment]", "values": [{"measurement": "lumican expression (in words)", "setting": "lumican; listed as acetyl-Gln-Asp-Val-His", "value": "increase of lumican expression"}, {"measurement": "lumican expression (in words)", "setting": "lumican; listed as acetyl-QDVH", "value": "significantly stimulated the expression of lumican with a dose-dependent effect"}, {"measurement": "Ratio versus calibrator (collagen type I mRNA)", "setting": "collagen type I; 3 μg/ml", "value": 1.05}, {"measurement": "Ratio versus calibrator (collagen type I mRNA)", "setting": "collagen type I; 10 μg/ml", "value": 1.18}, {"measurement": "rate of collagen type I gene expression (in words)", "setting": "collagen type I", "value": "significantly enhanced"}]}]}
